# According to PMC6198970, “Safety, efficacy, and dose response of the maturation inhibitor GSK3532795 (formerly known as BMS-955176) plus tenofovir/emtricitabine once daily in treatment-naive HIV-1-infected adults: Week 24 primary analysis from a randomized Phase IIb trial” (PLoS ONE, 2018):
# Like-named read-outs stand apart in the source and are kept apart here.
# How the values were obtained:
# [1] = design: method as in protocol Section 1.4.1.2; conditions: 300 mg/kg/day (AUC 279 g·h/mL); ref protocol Section 1.4.1.2; cited from earlier work
# [2] = Clinical laboratory evaluations; format: in vivo, HIV-1-infected adults
# Protocol: Physical examinations, measurement of vital signs, and clinical laboratory evaluations were performed at Weeks 4, 8, 12, 16 and 24, and participants were closely monitored for AEs and SAEs throughout. AEs were classified according to MedDRA version 19.0. The severity and relationship to study drug was assessed by the local investigator.
# [3] = Population PK model (NONMEM); format: in vivo, HIV-1-infected adults
# Protocol: Population PK analyses were conducted via non-linear mixed effects using non-linear mixed-effects modeling (NONMEM) software, version 7, level 2.0 (ICON Development Solutions, Hanover, Maryland, USA).[17] A summary of the population PK modeling methods and exposure response exploratory analyses for efficacy and safety is included in Supporting information.
# Population pharmacokinetic (PK) analyses were conducted via nonlinear mixed-effects modelling using nonlinear mixed effects modeling (NONMEM) software, version 7, level 2.0 (ICON Development Solutions, Hanover, MD). Assessment of model adequacy and decision about increasing model complexity was driven by the data and guided by goodness-of-fit criteria, including visual inspection of diagnostic scatter plots (observed versus predicted concentration, residual/weighted residual versus predicted concentration or time and histograms of individual random effects, for example), successful convergence of the minimization routine, plausibility of parameter estimates, precision of parameter estimates, correlation between model parameter estimation errors < 0.95, and the Akaike information criterion (AIC), given the minimum objective function value and number of estimated parameters. An exploratory investigation of covariate-parameter relationships was undertaken as part of the population PK analysis. Predictive performance was assessed using stratified non-parametric bootstrapping (n=500). Following the construction of a suitable PK model, individual-specific steady-state exposure metrics were derived for exposure-response investigation. An exploratory plotting analysis was performed to investigate exposure–response relationships for efficacy and safety endpoints, where endpoints including fraction of participants with <40 c/mL at Week 24 (modified intent-to-treat population) and percentage of participants with Grade 1, 2, 3, and 4 gastrointestinal events (adverse events >7 days) were analysed as a function of exposure quantiles.
# CD4+ T-cell count = assay: Change from baseline in CD4+ T-cell count; format: in vivo, HIV-1-infected adults; conditions: Week 24
# From the text: The primary endpoint was determination of the proportion of participants with plasma HIV-1 RNA <40 copies/mL at Week 24 after treatment with GSK3532795 or efavirenz (EFV). Secondary endpoints included mean changes from baseline in CD4+ T-cell count and mean changes in the percentage of CD4+ T-cell count over time. Secondary safety endpoints included frequency of adverse events (AEs), serious AEs (SAEs), and AEs leading to discontinuation through Week 24. Further secondary endpoints included emergence of drug resistance. Exploratory endpoints included assessment of the impact of Gag polymorphisms on the efficacy of GSK3532795. […] In addition, though Gag A364 is essentially invariant across genotypes, it was included in the primary endpoint analysis since emergent resistance to GSK3532795 (both in vitro and in Phase IIa studies) mapped, in part, to the A364V change. Thus, our analysis at the Week 24 primary endpoint was limited to these four positions. Pharmacokinetic (PK) analyses were performed to evaluate treatment exposure and assess the dose proportionality of GSK3532795 when co-administered with tenofovir disoproxil fumarate (TDF)/emtricitabine (FTC).
# [4] = design: method as in Study AI468041; conditions: BMS-955176 80 mg SDD suspension with combined oral contraceptive; ref Study AI468041; cited from earlier work
# [5] = cited from earlier work
# CYPs = test system: CYPs; design: method as in protocol Section 1.4.1.2; conditions: ref protocol Section 1.4.1.2; cited from earlier work
# [6] = BMS-955176 40 mg SDD suspension and TDF at steady state; ref Study AI468005; cited from earlier work
# [7] = design: method as in AI468001 and AI468002; conditions: same doses and formulation; ref AI468001 and AI468002; listed as BMS-955176; cited from earlier work
# [8] = design: method as in protocol Section 1.4.1.2; conditions: ref protocol Section 1.4.1.2; cited from earlier work
# [9] = design: method as in protocol Section 1.4.1.2; conditions: 80 mg/kg/day, ref protocol Section 1.4.1.2, cited from earlier work
# [10] = test system: human immunodeficiency virus type-2 (HIV-2) isolates; design: method as in protocol Section 1.4.1.2; conditions: active against 1 of 3 HIV-2 isolates; ref protocol Section 1.4.1.2; cited from earlier work
# [11] = cited from earlier work; remark: listed apart in the source
# CYP1A2, CYP2B6, CYP3A4 = test system: CYP1A2, CYP2B6, CYP3A4; design: method as in protocol Section 1.4.1.2; conditions: ref protocol Section 1.4.1.2; cited from earlier work
# OCT2 = test system: OCT2; design: method as in protocol Section 1.4.1.2; conditions: preliminary data; ref protocol Section 1.4.1.2; cited from earlier work
# [12] = ref protocol Section 1.4.1.2, cited from earlier work
compound,measurement,setting,value
C=C(C)[C@@H]1CC[C@]2(NCCN3CCS(=O)(=O)CC3)CC[C@]3(C)[C@H](CC[C@@H]4[C@@]5(C)CC=C(c6ccc(C(=O)O)cc6)C(C)(C)[C@@H]5CC[C@]43C)[C@@H]12 [GSK3532795],Genotoxicity in rat micronucleus assay,[1],not genotoxic
same,Grade 3 low potassium,[2]; 60 mg arm,one participant
same,"Mean total cholesterol, direction of change","[2]; 120 mg arm, baseline to Week 24",decreased
same,Grade 3 laboratory abnormalities in triglycerides and creatinine clearance (CrCl),[2]; 180 mg arm,one participant each
same,Grade 3 liver chemistry abnormalities,[2]; GSK3532795 arms,three participants
same,Mean decrease in triglyceride levels,"[2]; range across all GSK3532795 arms, baseline to Week 24",5.0 to 12.9 mg/dL
same,Reduction in clearance in African-American participants,[3]; compared with White participants,23%
same,Additive residual error,[3]; final population PK model,37400
same,"First-order absorption rate (Ka), estimate",[3]; final population PK model,0.0236 h⁻¹
same,Interindividual variance of CL,[3]; final population PK model,0.0610
same,Interindividual variance of Ka,[3]; final population PK model,0.164
same,Interindividual variance of V,[3]; final population PK model,0.462
same,Interoccasion variance of F1,[3]; final population PK model,0.0512
same,Proportional residual error,[3]; final population PK model,0.0165
same,clearance,"[3]; human, in vivo, oral, final population PK model, read-out: Clearance (CL), estimate (converted)",37.3 mL/min
same,Vd,"[3]; human, in vivo, oral, final population PK model, read-out: Volume of distribution (V), estimate",5.58 L
same,Increase in clearance in participants with Grade ≥2 diarrhea,[3]; relative to no diarrhea,18%
same,Mean change in CD4+ T-cell count (SD),CD4+ T-cell count; 60 mg,94.3 (SD 175.00) cells/μL
same,Mean change in CD4+ T-cell count (SD),CD4+ T-cell count; 120 mg,79.7 (SD 199.46) cells/μL
same,Mean change in CD4+ T-cell count (SD),CD4+ T-cell count; 180 mg,92.5 (SD 144.04) cells/μL
same,Effect on exposures to ethinyl estradiol (EE) and norelgestromin (NGMN),[4],reduced
same,AUC at NOAEL,"[5]; 30 mg/kg/day, ref protocol Section 1.4.1.2",1.135e+08 µg·h/mL
same,"ALT activity not recovered, fold","[5]; 100 mg/kg/day, 1 male, end of 2-week recovery, ref protocol Section 1.4.1.2",1.94 x
same,AUC at dose with dose-limiting toxicity,"[5]; 100 mg/kg/day, ref protocol Section 1.4.1.2",357 g·h/mL
same,Finding at high dose,"[5]; 300 mg/kg/day, Days 8 to 9, ref protocol Section 1.4.1.2",early euthanasia of all the rats
same,NOAEL,"[5]; rat, in vivo",30 mg/kg/day
same,Time-dependent inhibition of CYPs,CYPs,No
same,Impact of coadministration on exposures,[6],neither BMS-955176 nor TDF exposures were meaningfully impacted
same,Exposures lower in HIV-1-infected subjects compared to healthy subjects,[7],35%
same,Route of elimination,[8],eliminated principally via metabolism followed by excretion in bile with little renal excretion
same,Tissue distribution,[8],"distributed preferentially into the duodenum, liver, and lymph nodes with little penetration into the brain"
same,AUC,[9],3.26 gh/mL
same,Developmental toxicity classification,[9]; rabbits,not a developmental toxicant
same,EC50,[10],0.015 µM
same,Safety in Phase 1,"[11]; SAD 10-120 mg, MAD 10-80 mg QD for 14-28 days, ref Study AI468001","No SAEs, deaths, or discontinuations related to study drug occurred"
same,Half life (T-HALF),"[11]; healthy subjects, ref Study AI468001",approximately 35 hours
same,Increase in BMS-955176 AUC(TAU),"[11]; multiple dose with daily 400 mg ATV and a standard meal for 14 days, ref AI468001",~ 25%
same,Time to steady state,"[11]; multiple-dose once daily, ref Study AI468001",approximately 7 days
same,Increase in Cmax and AUC(INF) with dose,"[11]; single dose 10-120 mg, multiple dose 10-80 mg QD, ref Study AI468001",slightly less than dose-proportional
same,Increase in BMS-955176 AUC(INF),"[11]; single dose following two doses of 100 mg RTV, ref AI468001",~48%
same,"Induction of CYP1A2, CYP2B6, or CYP3A4","CYP1A2, CYP2B6, CYP3A4",not an inducer
same,Inhibition of OCT2,OCT2,does not inhibit OCT2
same,AUC at NOAEL,[12]; 1 mg/kg/day,64.9 gh/mL
same,AUC at lowest dose with effects,[12]; 3 mg/kg/day,135 gh/mL
same,NOAEL,"[12]; dog 9-month, stomach histologic changes",1 mg/kg/day
